Data published in ChEMBL document CHEMBL2413029, “Rapid modifications of N-substitution in iminosugars: development of new β-glucocerebrosidase inhibitors and pharmacological chaperones for Gaucher disease” (Bioorg Med Chem, 2013).
Positions count from the first letter of the chain named. The source made the active and inactive calls. The calls are words filed in the database; no cut-off is given here.

Experiments:
[1] = target: T1, Lysosomal acid glucosylceramidase (Homo sapiens) (UniProt P04062); test: Inhibition of human beta-glucocerebrosidase at 20 uM by fluorescence spectrophotometry
T1 sequence (whole entry): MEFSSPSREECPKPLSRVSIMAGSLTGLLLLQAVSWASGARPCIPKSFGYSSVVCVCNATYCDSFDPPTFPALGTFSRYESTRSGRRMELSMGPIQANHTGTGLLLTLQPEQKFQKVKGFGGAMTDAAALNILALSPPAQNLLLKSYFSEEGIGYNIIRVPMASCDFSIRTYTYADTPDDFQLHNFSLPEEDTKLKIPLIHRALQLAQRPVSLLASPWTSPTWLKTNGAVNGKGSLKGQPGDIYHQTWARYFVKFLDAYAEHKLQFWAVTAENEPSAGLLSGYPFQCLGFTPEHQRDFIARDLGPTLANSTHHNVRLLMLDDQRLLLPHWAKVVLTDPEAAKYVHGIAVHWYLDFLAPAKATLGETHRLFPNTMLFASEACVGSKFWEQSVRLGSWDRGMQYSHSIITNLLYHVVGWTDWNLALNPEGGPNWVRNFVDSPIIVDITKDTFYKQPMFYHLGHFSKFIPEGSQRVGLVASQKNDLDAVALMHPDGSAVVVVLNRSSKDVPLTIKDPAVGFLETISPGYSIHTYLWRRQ

[2] = target: Lysosomal alpha-glucosidase (Homo sapiens) (UniProt P10253); test: Induction of alpha-glucosidase in human GM00372 cells using 4-methylumbelliferyl alpha-D-glucoside as substrate at 20 to 100 uM after 4 days by fluorescence spectrophotometry relative to untreated control; format: cell-based
[3] = system: T2, Lysosomal acid glucosylceramidase (Homo sapiens), P04062 [N409S]; test: Induction of beta-glucocerebrosidase N370S mutant trafficking from endoplasmic reticulum to lysosome in human GM00372 cells at 5 uM by immunocytochemistry; format: cell-based
T2 sequence (whole entry): T1 sequence (whole entry) with N409S

[4] = target: T3, Lysosomal acid glucosylceramidase (Homo sapiens, UniProt P04062); test: Competitive inhibition of human beta-glucocerebrosidase by Lineweaver-Burk double reciprocal plot method
T3 sequence (P04062 whole entry): T1 sequence (whole entry)

[5] = system: T2, Lysosomal acid glucosylceramidase (Homo sapiens), P04062 [N409S]; test: Induction of beta-glucocerebrosidase N370S mutant in human GM00372 cells using 4-methylumbelliferyl-beta-D-glucopyranoside as substrate at 1.5 uM by fluorescence spectrophotometry relative to untreated control; format: cell-based
[6] = system: T2, Lysosomal acid glucosylceramidase (Homo sapiens), P04062 [N409S]; test: Induction of beta-glucocerebrosidase N370S mutant in human GM00372 cells using 4-methylumbelliferyl-beta-D-glucopyranoside as substrate at 12.5 uM by fluorescence spectrophotometry relative to untreated control; format: cell-based
[7] = target: Lysosomal alpha-glucosidase (Homo sapiens) (UniProt P10253); test: Induction of alpha-glucosidase in human GM00372 cells using 4-methylumbelliferyl alpha-D-glucoside as substrate at <6.25 uM after 4 days by fluorescence spectrophotometry relative to untreated control; format: cell-based
[8] = target: Lysosomal alpha-glucosidase (Homo sapiens) (UniProt P10253); test: Induction of alpha-glucosidase in human GM00372 cells using 4-methylumbelliferyl alpha-D-glucoside as substrate at 1.5 uM after 4 days by fluorescence spectrophotometry relative to untreated control; format: cell-based
[9] = system: T2, Lysosomal acid glucosylceramidase (Homo sapiens), P04062 [N409S]; test: Induction of beta-glucocerebrosidase N370S mutant in human GM00372 cells using 4-methylumbelliferyl-beta-D-glucopyranoside as substrate at 625 nM by fluorescence spectrophotometry relative to untreated control; format: cell-based
[10] = system: T2, Lysosomal acid glucosylceramidase (Homo sapiens), P04062 [N409S]; test: Induction of beta-glucocerebrosidase N370S mutant in human GM00372 cells using 4-methylumbelliferyl-beta-D-glucopyranoside as substrate at 50 uM by fluorescence spectrophotometry relative to untreated control; format: cell-based
[11] = target: Lysosomal alpha-glucosidase (Homo sapiens) (UniProt P10253); test: Induction of alpha-glucosidase in human GM00372 cells using 4-methylumbelliferyl alpha-D-glucoside as substrate at 6.2 uM after 4 days by fluorescence spectrophotometry relative to untreated control; format: cell-based
[12] = system: T2, Lysosomal acid glucosylceramidase (Homo sapiens), P04062 [N409S]; test: Induction of beta-glucocerebrosidase N370S mutant in human GM00372 cells using 4-methylumbelliferyl-beta-D-glucopyranoside as substrate at 25 uM by fluorescence spectrophotometry relative to untreated control; format: cell-based
[13] = target: T3, Lysosomal acid glucosylceramidase; test: Non-competitive inhibition of human beta-glucocerebrosidase by Lineweaver-Burk double reciprocal plot method
[14] = system: T2, Lysosomal acid glucosylceramidase (Homo sapiens), P04062 [N409S]; test: Induction of beta-glucocerebrosidase N370S mutant in human GM00372 cells using 4-methylumbelliferyl-beta-D-glucopyranoside as substrate at 3.1 uM by fluorescence spectrophotometry relative to untreated control; format: cell-based
[15] = system: T2, Lysosomal acid glucosylceramidase (Homo sapiens), P04062 [N409S]; test: Induction of beta-glucocerebrosidase N370S mutant in human GM00372 cells using 4-methylumbelliferyl-beta-D-glucopyranoside as substrate at 6.2 uM by fluorescence spectrophotometry relative to untreated control; format: cell-based
[16] = target: Lysosomal alpha-glucosidase (Homo sapiens) (UniProt P10253); test: Induction of alpha-glucosidase in human GM00372 cells using 4-methylumbelliferyl alpha-D-glucoside as substrate at 25 uM after 4 days by fluorescence spectrophotometry relative to untreated control; format: cell-based

O=C(CCC1CCCC1)NCCCCN1C[C@H](O)[C@@H](O)[C@H](O)[C@H]1CO
inhibition [1]: < 60%

O=C(CC(c1ccccc1)(c1ccccc1)c1ccccc1)NCCCCN1[C@H](CO)[C@@H](O)[C@H](O)[C@H]1CO
Activity [2]: < 10%
Activity [3]: Active
Ki [4]: 4100 nM
fold change (FC) [5]: 2.2

O=C(NCCCCN1C[C@H](O)[C@@H](O)[C@H](O)[C@H]1CO)C1CCC1
inhibition [1]: < 60%

O=C(CC1CCCCC1)NCCCCN1C[C@H](O)[C@@H](O)[C@H](O)[C@H]1CO
inhibition [1]: < 60%

O=C(COc1ccc(Cl)c(Cl)c1)NCCCCN1C[C@H](O)[C@@H](O)[C@H](O)[C@H]1CO
inhibition [1]: Active
Ki [4]: 3200 nM

CC[C@@H]1[C@@H](O)[C@H](O)[C@@H](CO)N1CCCCNC(=O)CC1c2ccccc2-c2ccccc21
fold change (FC) [6]: 1.6

O=C(CC(c1ccccc1)(c1ccccc1)c1ccccc1)NCCCCN1C[C@H](O)[C@@H](O)[C@H](O)[C@H]1CO
Activity [7]: 60%
inhibition [1]: Active
fold change (FC) [8]: 0.4
fold change (FC) [9]: 1.8
Ki [4]: 400 nM

O=C(NCCCCN1C[C@H](O)[C@@H](O)[C@H](O)[C@H]1CO)C1CCCC1
inhibition [1]: < 60%

O=C(Cc1cc(C(F)(F)F)cc(C(F)(F)F)c1)NCCCCN1C[C@H](O)[C@@H](O)[C@H](O)[C@H]1CO
Activity [7]: 60%
fold change (FC) [6]: 1.75
inhibition [1]: Active
fold change (FC) [8]: 0.4
Ki [4]: 71 nM

O=C(CC1c2ccccc2-c2ccccc21)NCCCCN1C[C@@H](O)[C@H](O)[C@H]1CO
Activity [2]: < 10%
fold change (FC) [10]: 1.8

CCCCCCCCCN1C[C@H](O)[C@@H](O)[C@H](O)[C@H]1CO
Activity [7]: 60%
fold change (FC) [11]: 0.4

O=C(CC1CCCC1)NCCCCN1C[C@H](O)[C@@H](O)[C@H](O)[C@H]1CO
inhibition [1]: < 60%

COc1ccc2c(c1)C(CC(=O)NCCCCN1C[C@H](O)[C@@H](O)[C@H](O)[C@H]1CO)CC2 (some centres not stated)
fold change (FC) [12]: 1.5
inhibition [1]: Active
Ki [13]: 1100 nM

O=C(CC1c2ccccc2-c2ccccc21)NCCCCN1C[C@H](O)[C@@H](O)[C@H](O)[C@H]1CO
Activity [7]: 60%
fold change (FC) [6]: 1.9
inhibition [1]: Active
fold change (FC) [8]: 0.3
Ki [4]: 400 nM

O=C(NCCCCN1C[C@H](O)[C@@H](O)[C@H](O)[C@H]1CO)C1CC1
inhibition [1]: < 60%

CC[C@@H]1[C@@H](O)[C@H](O)[C@@H](CO)N1CCCCNC(=O)CC(c1ccccc1)(c1ccccc1)c1ccccc1
fold change (FC) [14]: 1.4

O=C(NCCCCN1C[C@H](O)[C@@H](O)[C@H](O)[C@H]1CO)C1CCc2ccccc2C1 (some centres not stated)
inhibition [1]: Active
Ki [4]: 1000 nM

O=C(CC1c2ccccc2-c2ccccc21)NCCCCN1[C@H](CO)[C@@H](O)[C@H](O)[C@H]1CO
Activity [2]: < 10%
fold change (FC) [15]: 1.7

O=C(CC(c1ccccc1)(c1ccccc1)c1ccccc1)NCCCCN1C[C@@H](O)[C@H](O)[C@H]1CO
fold change (FC) [16]: 1.2
fold change (FC) [15]: 2.5
